US12296024B2, “Modified zinc oxide nanocomposite, antibiotic composition comprising the same, and combination preparation with the same” (UIF (University Industry Foundation), Yonsei University, priority 2021, dated 2025)

System: Aspergillus spores
Assay: Effect of ions on fungal growth
Type: cell-based
Settings: 1000 Aspergillus spores/dish, 37° C., day 3 of culture, FIG. 8B
Description: To investigate the effect of ions on fungal growth, salt solutions were added at a high molecular concentration (0.1 M, 10 μL) and a low molecular concentration ([…], 10 μL) and fungi were cultured at 37° C. under conditions of 1000 Aspergillus spores/dish. The results are illustrated in FIG. 8B based on the colonies on day 3 of culture.

| SMILES | effect of ions on fungal growth compared with Na+, Mg2+ or NH4+ ions |
| --- | --- |
| [Cl-].[Cl-].[Zn+2] [ZnCl2] | greater effect |
| O=[N+]([O-])[O-].O=[N+]([O-])[O-].[Zn+2] [Zn(NO3)2] | greater effect |
